Measured values taken from publication PMC7216583 (Parasites & Vectors, 2020).
Counter-ions that a name gives are not always drawn.

system: Toxoplasma gondii RH-2F tachyzoites; test: microbe, parasite or virus in culture; details: 72 h, read-out: Parasite inhibition (%) mean

Row | SMILES | inhibition of growth at 5 µM [%]
1 | C#CCN[C@@H]1CCc2ccccc21 [Rasagiline mesylate] | 13.3
2 | C/C=C(\C)C(=O)N[C@@H](c1ccccc1)[C@@H](O)C(=O)O[C@H]1C[C@@]2(O)[C@@H](OC(=O)c3ccccc3)[C@@H]3[C@]4(OC(C)=O)CO[C@@H]4C[C@H](O)[C@@]3(C)C(=O)[C@H](OC(C)=O)C(=C1C)C2(C)C [Cephalomannine] | 22.4

same assay, conditions: 72 h, read-out: Parasite inhibition (%) mean, preliminary screen of compound library, mean

Row | SMILES | inhibition of growth at 5 µM [%]
3 | CN(C)C1CCN(C(=O)c2ccc(NC(=O)Nc3ccc(-c4nc(N5CCOCC5)nc(N5CCOCC5)n4)cc3)cc2)CC1 [PF-05212384 (PKI-587)] | 40.5
4 | Fc1cc(-c2cccc3ncc(-c4cnn(C5CCNCC5)c4)nc23)cc(F)c1CN1CCOCC1 [NVP-BSK805 2HCl] | 14.6
5 | CCOC(=O)c1ccc(C#Cc2ccc3c(c2)C(C)(C)CCS3)nc1 [Tazarotene (Avage)] | -0.7
6 | C=CCc1cc(OC)c(O)c(C(=O)NCCO)c1 [Alibendol] | 0.1
7 | O=C1NC(=O)/C(=C/c2ccc3c(c2)OC(F)(F)O3)S1 [AS-604850] | 0.8
8 | COc1cc(C(C)=O)ccc1OCCCN1CCC(c2noc3cc(F)ccc23)CC1 [Iloperidone (Fanapt)] | 37.8
9 | N[C@@H](CC(=O)N1CCn2c(nnc2C(F)(F)F)C1)Cc1cc(F)c(F)cc1F [Sitagliptin phosphate monohydrate] | 1.1
10 | CNC(=O)c1cc(Oc2ccc(NC(=O)Nc3cc(C(C)(C)C)nn3-c3ccc4ncccc4c3)c(F)c2)ccn1 [DCC-2036 (Rebastinib)] | 25.5
11 | C[C@@]12C[C@@]3(O)O[C@@H](O1)[C@]1(COC(=O)c4ccccc4)[C@H]3C[C@@]12O[C@@H]1O[C@H](CO)[C@@H](O)[C@H](O)[C@H]1O [Paeoniflorin] | 0.7
12 | COc1cc2nc(N3CCCN(C)CC3)nc(NC3CCN(Cc4ccccc4)CC3)c2cc1OC [BIX01294] | 21.8
13 | Cc1nc2c([nH]1)-c1ccccc1N(C(=O)c1ccc(NC(=O)c3ccccc3-c3ccccc3)cc1)CC2 [Conivaptan HCl (Vaprisol)] | 6.6
14 | C[N+]1(C)[C@@H]2C[C@@H](OC(=O)C(O)(c3cccs3)c3cccs3)C[C@H]1[C@@H]1O[C@@H]12 [Tiotropium Bromide hydrate] | -0.7
15 | O=C(NCC1CCOCC1)c1cnc(Nc2ccc(Cl)cc2Cl)nc1C(F)(F)F [GW842166X] | -12
16 | Nc1nc(=O)c2c([nH]1)NC[C@H](CNc1ccc(C(=O)N[C@@H](CCC(=O)O)C(=O)O)cc1)N2C=O [Calcium levofolinate (Calcium Folinate)] | 0.1
17 | NCC(=O)CCC(=O)O [5-Aminolevulinic acid hydrochloride] | 20.1
18 | CC(S)C(=O)NCC(=O)O (stereo not drawn) [Tiopronin (Thiola)] | 0.9
19 | C[C@H]1C[C@H]2[C@@H]3CCC4=CC(=O)C=C[C@]4(C)[C@@H]3C(=O)C[C@]2(C)[C@]1(O)C(=O)CO [Betapar (Meprednisone)] | 0.9
20 | C[C@@H](O)[C@H]1C(=O)N2C(C(=O)O)=C(S[C@@H]3CN[C@H](CNS(N)(=O)=O)C3)[C@H](C)[C@H]12 [Doripenem Hydrate] | 0.8

Row | SMILES | inhibition of growth at 5 µM [%]
21 | O=C(Nc1cccnc1)N1CCC(Cc2cccc(Oc3ccc(C(F)(F)F)cn3)c2)CC1 [PF-3845] | 6.7
22 | O=C[C@H](O)[C@@H](O)[C@H](O)[C@H](O)CO [Dextrose (D-glucose)] | -33.7
23 | COC(=O)CCSCc1ccc(-c2onc(C)c2NC(=O)OC(C)c2ccccc2Cl)cc1 (stereo not drawn) [Ki16198] | 1.4
24 | COc1ccc(NS(=O)(=O)c2sc3ccc(Cl)cc3c2C)cc1N1CCNCC1 [SB 271046] | -0.6
25 | CCn1c(=O)c2c(nc(/C=C/c3ccc(OC)c(OC)c3)n2C)n(CC)c1=O [Istradefylline (KW-6002)] | -1.9
26 | CCc1cc2c(cc1N1CCC(N3CCOCC3)CC1)C(C)(C)c1[nH]c3cc(C#N)ccc3c1C2=O [CH5424802] | 46.1
27 | Cn1c(CNc2ccc(C(=N)N)cc2)nc2cc(C(=O)N(CCC(=O)O)c3ccccn3)ccc21 [BIBR 953 (Dabigatran etexilate, Pradaxa)] | 0.3
28 | Nc1ncnc2c1ncn2[C@@H]1O[C@@H](COP(=O)(O)OP(=O)(O)OP(=O)(O)O)[C@@H](O)[C@H]1O [ATP (Adenosine-Triphosphate)] | -56.8
29 | O=C(O)Cc1ccccc1Nc1c(Cl)cccc1Cl [Diclofenac Diethylamine] | -21.2
30 | CNCC(O)c1ccc(O)cc1 (stereo not drawn) [Synephrine HCl] | 3.7
31 | C[C@@H](NCCCc1cccc(C(F)(F)F)c1)c1cccc2ccccc12 [AMG-073 HCl (Cinacalcet hydrochloride)] | 2.4
32 | CCCCCCCCOc1ccccc1C(=O)Nc1ccc(C(=O)OCC[N+](C)(CC)CC)cc1 [Otilonium Bromide] | 0.7
33 | CCCCc1oc2ccc(NS(C)(=O)=O)cc2c1C(=O)c1ccc(OCCCN(CCCC)CCCC)cc1 [Dronedarone HCl (Multaq)] | 2.5
34 | Cc1cc(C2CCCCC2)n(O)c(=O)c1 [Ciclopirox (Penlac)] | 33.4
35 | C=CC(=O)N1CCC[C@@H](n2nc(-c3ccc(Oc4ccccc4)cc3)c3c(N)ncnc32)C1 [PCI-32765 (Ibrutinib)] | -0.8
36 | COc1c(OCCCN2CCOCC2)ccc2c1N=C(NC(=O)c1cnc(N)nc1)N1CCN=C21 [BAY80-6946] | 40.8
37 | O=C[C@H](O)[C@@H](O)[C@H](O)CO [Xylose] | -51.2
38 | NC[C@H](CC(=O)O)c1ccc(Cl)cc1 [(R)-baclofen] | 23.1

same assay, conditions: 72 h, read-out: Parasite inhibition (%) mean, preliminary screen, mean

Row | SMILES | inhibition of growth at 5 µM [%]
39 | COc1ccc(C[C@@H]2c3cc(OC)c(OC)cc3CC[N@+]2(C)CCC(=O)OCCCCCOC(=O)CC[N@@+]2(C)CCc3cc(OC)c(OC)cc3[C@H]2Cc2ccc(OC)c(OC)c2)cc1OC [Cisatracurium besylate (Nimbex)] | 4.5
40 | CC(C)c1noc(N2CCC(COc3ccc(-c4ccc(S(C)(=O)=O)cc4)nc3)CC2)n1 [GSK1292263] | 0.7
41 | CCCC(CCC)C(=O)O [Divalproex sodium] | 1.4
42 | CC[C@@H]1C(=O)N(C)c2cnc(Nc3ccc(C(=O)NC4CCN(C)CC4)cc3OC)nc2N1C1CCCC1 [BI 2536] | 0.7
43 | CNS(=O)(=O)CCc1ccc2[nH]cc(C3CCN(C)CC3)c2c1 [Naratriptan HCl] | 0.6
44 | C#C[C@]1(O)C=C[C@H]2[C@@H]3CCC4=CC(=O)CC[C@@H]4[C@H]3CC[C@@]21CC [Gestodene] | 0.6
45 | CCOc1cc2ncc(C#N)c(Nc3ccc(OCc4ccccn4)c(Cl)c3)c2cc1NC(=O)/C=C/CN(C)C [Neratinib (HKI-272)] | -11.6
46 | COc1ccccc1S(=O)(=O)Nc1ccc2c(c1)CN(C)C(=O)N2 [PFI-1] | 2.2
47 | CN(C)[C@@H](CCOc1cccc2ccccc12)c1ccccc1 [Dapoxetine HCl (Priligy)] | 0.8
48 | NC(=O)c1ccc(I)c([N+](=O)[O-])c1 [Iniparib (BSI-201)] | 2.4
49 | NC1(c2ccc(-c3nc4ccn5c(=O)[nH]nc5c4cc3-c3ccccc3)cc2)CCC1 [MK-2206 2HCl] | 45.5
50 | Cc1nc(C(=O)NCC(=O)O)c(O)c2ccc(Oc3ccccc3)cc12 [FG-4592] | 1.3
51 | C[C@](O)(COc1ccc(C#N)cc1)C(=O)Nc1ccc(C#N)c(C(F)(F)F)c1 [Ostarine (MK-2866)] | 0.7
52 | CCOC(=O)[C@H](CCc1ccccc1)N[C@H]1CCCN2CCC[C@H](C(=O)O)N2C1=O [Cilazapril monohydrate (Inhibace)] | 11.9
53 | CCCC(=O)OCOC(=O)C1=C(C)NC(C)=C(C(=O)OC)C1c1cccc(Cl)c1Cl (stereo not drawn) [Cleviprex (Clevidipine)] | 23.8
54 | CN(C)CCN1C(=O)c2cccc3cc(N)cc(c23)C1=O [Amonafide] | -3.3

Row | SMILES | inhibition of growth at 5 µM [%]
55 | COc1cc2nccc(Oc3ccc(NC(=O)Nc4cc(C)on4)c(Cl)c3)c2cc1OC [Tivozanib (AV-951)] | -5.5
56 | Cc1ccc(S(=O)(=O)OCC(=O)Nc2ccc(C(=O)O)c(O)c2)cc1 [NSC 74859 (S3I-201)] | -25.8
57 | Cc1cccc(Cc2c[nH]cn2)c1C [Detomidine HCl] | 60.4
58 | CNC(=O)c1ccc(N2C(=S)N(c3ccc(C#N)c(C(F)(F)F)c3)C(=O)C2(C)C)cc1F [MDV3100 (Enzalutamide)] | 35.7
59 | CS(=O)(=O)CCNCc1ccc(-c2ccc3ncnc(Nc4ccc(OCc5cccc(F)c5)c(Cl)c4)c3c2)o1 [Lapatinib Ditosylate (Tykerb)] | 3.3
60 | CCOc1cc2ncc(C#N)c(Nc3ccc(F)c(Cl)c3)c2cc1NC(=O)/C=C/CN(C)C [Pelitinib (EKB-569)] | -28.8
61 | COc1ccc(S(=O)(=O)Nc2cccnc2Nc2ccc(O)cc2)cc1 [ABT-751] | 22.7
62 | CCCS(=O)(=O)Nc1ccc(F)c(C(=O)c2c[nH]c3ncc(-c4ccc(Cl)cc4)cc23)c1F [Vemurafenib (PLX4032)] | 0.5
63 | COc1ccc2[nH]c([S+]([O-])Cc3ncc(C)c(OC)c3C)nc2c1 (stereo not drawn) [Esomeprazole magnesium (Nexium)] | 1.6
64 | CN(NC(=O)CC(=O)NN(C)C(=S)c1ccccc1)C(=S)c1ccccc1 [Elesclomol] | 0.9
65 | NCC1(CC(=O)O)CCCCC1 [Gabapentin HCl] | 1.7
66 | Oc1nc(-c2ccc(C(F)(F)F)cc2)nc2c1CSCC2 [XAV-939] | -38.8
67 | CNCc1ccc(-c2[nH]c3cc(F)cc4c3c2CCNC4=O)cc1 [Rucaparib (AG-014699 , PF-01367338)] | 26.1
68 | Nc1ccn([C@@H]2O[C@H](CO)[C@@H](O)C2(F)F)c(=O)n1 [Gemcitabine (Gemzar)] | 0.1
69 | COc1cc(OC)c(/C=C/S(=O)(=O)Cc2ccc(OC)c(NCC(=O)O)c2)c(OC)c1 [Rigosertib (ON-01910)] | 0.1
